# Data reported in patent US6642271B2, “Potentiating compounds” (Ardenia Investments, Ltd., priority 2001, dated 2003).
# Where “and” joins values, the source holds several entries; their conditions need not be identical. Equal values may be shown once.
# Tests used:
# [1] = test system: human breast adenocarcinoma MDA-MB-231 cell line; experiment: Cytotoxicity: cell growth inhibition in cultures, viable cells counted by trypan blue exclusion; type: cell-based; conditions: for inhibition at 0.04 µM / inhibition at 1 µM / inhibition at 0.1 µM / inhibition at 0.01 µM / inhibition at 0.001 µM / inhibition at 0.0001 µM / inhibition at 10 pM: Homo sapiens
# Protocol: The cell line was propagated by cultivation in Nunclon 25 cm^2 flasks (Nunc A/S, Denmark) in Minimum Essential Medium Eagle (MEM), containing antibiotics and supplemented with 10% (v/v) fetal bovine serum (FBS) (Sigma, St. Louis, Mo., USA). The cultures were maintained in growth medium at 37° C. in a humidified atmosphere, 95% air and 5% CO2.
# A suspension of tumour cells (60×10^3 cells/mL) was prepared in MEM with 5% FBS and antibiotics. Cell suspension (200 μL) was seeded in wells of Nunclon 96-microwell plates (Nunc A/S, Denmark) at a density of 12×10^3 cell/well. The solutions of the drugs to be tested were added to the cultures on day 0 or day 1 in volumes of 2 μL. In all cases the cells were incubated for 3 days.
# At the end of the incubation period, adherent cells were detached by trypsinization and the number of viable cells was counted using trypan blue dye exclusion test and a hemocytometer.
# All experiments were performed at least twice and the cells counts were done in triplicate for each drug concentration. Each control and test series consisted of 6-8 cultures. The results are expressed as mean cell number ±SD and the differences between control and test series were evaluated by means of Student's t-test. The cytotoxicity of each tested drug was evaluated by the extent of cell growth inhibition. The Cell growth inhibition was evaluated as follows:
# Cell growth inhibition, %=- - - ×100
# [2] = Solubility of compounds and formulations; type: physicochemical
# Protocol: The obtained solution can be stored for at least three months at low temperatures, without noticeable change in the properties of compound (I-VI). Moreover, the formulation retains its cytotoxic effects during prolonged storage. Before use, the solution is evaporated in vacuo to yield a waxy solid which is dissolved in saline or other commonly used vehicle for intravenous infusion to a patient. […] An ethanol solution is prepared of one of N-(all-trans-Retinoyl)-L-cysteic acid (I), N-(13-cis-Retinoyl)-L-cysteic acid (11), N-(all-trans-Retinoyl)-L-homocysteic acid (III), N-(13-cis-Retinoyl)-L-homocysteic acid (IV), N-(all-trans-Retinoyl)-L-cysteinesulfinic acid (V), or N-(13-cis-Retinoyl)-L-cysteinesulfinic acid (VI). The obtained solution is evaporated in vacuo to give waxy solid, whereupon Taxol® is added, dissolving the waxy solid. […]
# [3] = initial saline solution 0.005 mg/mL, final 40 nM in cultures, added day 1, three days of cultivation
# [4] = initial saline solution 0.5 mg/mL, final 40 nM, day 1, three days
# [5] = initial saline solution 1.0 mg/mL, final 40 nM, day 1, three days
# [6] = initial saline solution 5.0 mg/mL, final 40 nM, day 1, three days
structure (smiles),measurement,setting,value
"CC(=O)O[C@H]1C(=O)[C@@]2(C)[C@H]([C@H](OC(=O)c3ccccc3)[C@]3(O)C[C@H](OC(=O)[C@H](O)[C@@H](NC(=O)c4ccccc4)c4ccccc4)C(C)=C1C3(C)C)[C@]1(OC(C)=O)CO[C@@H]1C[C@@H]2O [Paclitaxel, reference compound]",number of living cells,"[1]; 8 × 10^−9 mol/L of paclitaxel (formulation: plus 4 × 10^−8 mol/L of compound, molar ratio 1:5), added day 0, three days",15.5 ± 1.63 × 10^3 and 26.3 ± 1.96 × 10^3
same,cell growth inhibition,[1]; at concentrations close to the IC50 concentration,~46%
same,cell growth inhibition,"[1]; drug alone, 10 nM paclitaxel, added day 1, three days of cultivation, positive control of molar-ratio experiments",46.1% and 44.3%
"CC1=C(/C=C/C(C)=C/C=C/C(C)=C\C(=O)N[C@@H](CS(=O)(=O)O)C(=O)O)C(C)(C)CCC1 [Compound II, N-(13-cis-Retinoyl)-L-cysteic acid]",inhibition at 0.04 µM,"[1]; MDA-MB-231, compound alone 4 × 10^−8 mol/L (40 nM), added day 0, three days",35.3%
same,inhibition at 0.04 µM,"[1]; MDA-MB-231, dry substance, stock 1 mg/ml in saline, final 4 × 10^−8 mol/L, day 1, three days",36.8%
same,inhibition at 1 µM,"[1]; MDA-MB-231, dry substance, stock 1 mg/ml in saline, final 10^−6 mol/L, day 1, three days",41.9%
same,inhibition at 0.1 µM,"[1]; MDA-MB-231, dry substance, stock 1 mg/ml in saline, final 10^−7 mol/L, day 1, three days",38.4%
same,inhibition at 0.01 µM,"[1]; MDA-MB-231, dry substance, stock 1 mg/ml in saline, final 10^−8 mol/L, day 1, three days",27.5%
same,inhibition at 0.001 µM,"[1]; MDA-MB-231, dry substance, stock 1 mg/ml in saline, final 10^−9 mol/L, day 1, three days",21.5%
same,inhibition at 0.0001 µM,"[1]; MDA-MB-231, dry substance, stock 1 mg/ml in saline, final 10^−10 mol/L, day 1, three days",17.8%
same,inhibition at 10 pM,"[1]; MDA-MB-231, dry substance, stock 1 mg/ml in saline, final concentration 10^−11 mol/L, day 1, three days",28.9%
same,inhibition at 0.04 µM,"[1]; MDA-MB-231, sodium salt in saline, final 4 × 10^−8 mol/L, day 1, three days",46.8%
same,inhibition at 1 µM,"[1]; MDA-MB-231, sodium salt in saline, final 10^−6 mol/L (top of range 10^−11 M to 10^−6 M), day 1, three days",51.6%
same,inhibition at 0.1 µM,"[1]; MDA-MB-231, sodium salt in saline, final 10^−7 mol/L, day 1, three days",46%
same,inhibition at 0.01 µM,"[1]; MDA-MB-231, sodium salt in saline, final 10^−8 mol/L, day 1, three days",46.5%
same,inhibition at 0.001 µM,"[1]; MDA-MB-231, sodium salt in saline, final 10^−9 mol/L, day 1, three days",41.2%
same,inhibition at 0.0001 µM,"[1]; MDA-MB-231, sodium salt in saline, final 10^−10 mol/L, day 1, three days",35.1%
same,inhibition at 10 pM,"[1]; MDA-MB-231, sodium salt of the compound dissolved in saline (1 mg/ml), final concentration 10^−11 mol/L, day 1, three days",27.9%
same,cell growth inhibition,"[1]; compound alone 4 × 10^−8 mol/L (40 nM), added day 0, three days, 0.04 µM",~40%
same,number of living cells,"[1]; compound alone 4 × 10^−8 mol/L, added day 0, three days",29.9 ± 2.38 × 10^3
same,Cell growth inhibition % Formulation,[1]; compound/paclitaxel formulations in saline,close to 75%
same,Cell growth inhibition % OF W/SAB,"[1]; dried compound/paclitaxel mixed-micellar system (OF), freeze-dried as water solution, reconstituted with 0.05 M sodium acetate buffer",close to 71%
same,Cell growth inhibition % OF SAB/W,"[1]; dried compound/paclitaxel mixed-micellar system (OF), freeze-dried in 0.05 M sodium acetate buffer, reconstituted with water",close to 72%
same,number of living cells,"[1]; dry substance, stock 1 mg/ml in saline, final 4 × 10^−8 mol/L, day 1, three days",32.6 ± 2.52 × 10^3
same,number of living cells,"[1]; dry substance, stock 1 mg/ml in saline, final 10^−6 mol/L, day 1, three days",30.0 ± 2.14 × 10^3
same,number of living cells,"[1]; dry substance, stock 1 mg/ml in saline, final 10^−7 mol/L, day 1, three days",31.8 ± 2.05 × 10^3
same,number of living cells,"[1]; dry substance, stock 1 mg/ml in saline, final 10^−8 mol/L, day 1, three days",37.4 ± 3.86 × 10^3
same,number of living cells,"[1]; dry substance, stock 1 mg/ml in saline, final 10^−9 mol/L, day 1, three days",40.5 ± 2.11 × 10^3
same,number of living cells,"[1]; dry substance, stock 1 mg/ml in saline, final 10^−10 mol/L, day 1, three days",42.4 ± 1.93 × 10^3
same,number of living cells,"[1]; dry substance, stock 1 mg/ml in saline, final concentration 10^−11 mol/L, day 1, three days",36.7 ± 3.65 × 10^3
same,cell growth inhibition,[1]; [3],32.6%
same,number of living cells,[1]; [3],34.8 ± 3.27 × 10^3
same,number of living cells,"[1]; initial saline solution 0.05 mg/mL, final 40 nM, day 1, three days",33.4 ± 2.91 × 10^3
same,cell growth inhibition,[1]; [4],35.9%
same,number of living cells,[1]; [4],33.1 ± 3.01 × 10^3
same,cell growth inhibition,[1]; [5],37.6%
same,number of living cells,[1]; [5],32.2 ± 2.14 × 10^3
same,cell growth inhibition,[1]; [6],29.3%
same,number of living cells,[1]; [6],36.5 ± 3.88 × 10^3
same,number of living cells,"[1]; sodium salt in saline, final 4 × 10^−8 mol/L, day 1, three days",31.2 ± 2.33 × 10^3
same,cell growth inhibition,"[1]; sodium salt in saline, final 10^−6 mol/L (top of range 10^−11 M to 10^−6 M), day 1, three days",~50%
same,number of living cells,"[1]; sodium salt in saline, final 10^−6 mol/L, day 1, three days",28.4 ± 1.02 × 10^3
same,number of living cells,"[1]; sodium salt in saline, final 10^−7 mol/L, day 1, three days",31.7 ± 1.54 × 10^3
same,number of living cells,"[1]; sodium salt in saline, final 10^−8 mol/L, day 1, three days",31.4 ± 1.62 × 10^3
same,number of living cells,"[1]; sodium salt in saline, final 10^−9 mol/L, day 1, three days",34.5 ± 1.94 × 10^3
same,number of living cells,"[1]; sodium salt in saline, final 10^−10 mol/L, day 1, three days",38.1 ± 1.18 × 10^3
same,number of living cells,"[1]; sodium salt of the compound dissolved in saline (1 mg/ml), final concentration 10^−11 mol/L, day 1, three days",42.3 ± 2.32 × 10^3
same,solubility in the commercially available Taxol® preparation,[2],excellent solubility
same,solubility in solvents,[2]; sodium salts,soluble only in mixtures containing water
